We go through 9 compounds from US20230416329A1, “A PEPTIDE WITH DISULFIDE BONDS AND INHIBITORY ACTIVITY AGAINST SERINE PROTEASES, DERIVED HYBRID PEPTIDES THEREOF, AND USES THEREOF” (INSTITUTE OF MATERIA MEDICA , CHINESE ACADEMY OF MEDICAL …, priority 2020, published 2023).

The term pIC50 denotes −log10 of the IC50, conventionally taken in molar units. The low end stands for a large IC50, the high end for a small IC50. The pKi is the negative decadic logarithm of the Ki, by convention in mol/L.

pIC50, pKi: −log10 of the molar value. Bridge positions count the residues as written; N and C are the ends. Square brackets hold non-standard residues; d marks the D form. Peptide text beside a SMILES is read from it. Hyp = O=C(O)[C@@H]1C[C@@H](O)CN1

In one test the target is porcine pancreatic elastase (Sus scrofa, UniProt P00772). Put plainly: Elastase inhibitory activity of peptides (AAApNA hydrolysis; IC50, Ki, residual activity). Format: biochemical. Particulars: elastase 0.5 μM, AAApNA 1 mM. The gist of the method: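 Porcine pancreatic elastase, 0.5 μM final, was preincubated with peptide for 10 min at 37° C in 20 mM CaCl2, 50 mM Tris-HCl pH 8.0. AAApNA (1 mM final) was then added for 60 min and A405 read. Residual activity gave IC50, converted to Ki via IC50/(1+S/Km) using measured Km.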
Sequence of porcine pancreatic elastase (P00772 27-266): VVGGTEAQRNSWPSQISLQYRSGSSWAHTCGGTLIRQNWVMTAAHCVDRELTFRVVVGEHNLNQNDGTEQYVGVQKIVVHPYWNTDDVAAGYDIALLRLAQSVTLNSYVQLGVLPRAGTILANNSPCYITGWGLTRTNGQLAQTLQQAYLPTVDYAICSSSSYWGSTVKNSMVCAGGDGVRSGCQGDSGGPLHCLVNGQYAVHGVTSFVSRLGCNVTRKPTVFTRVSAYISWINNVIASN
`CC[C@H](C)[C@@H]1NC(=O)CNC(=O)[C@@H](N)CSSC[C@@H](C(=O)N[C@@H](CCC(N)=O)C(=O)O)NC(=O)[C@H]([C@@H](C)CC)NC(=O)[C@@H]2CCCN2C(=O)[C@@H]2CCCN2C(=O)[C@H]([C@@H](C)CC)NC(=O)[C@H](CO)NC(=O)[C@H](C)NC(=O)[C@H]([C@@H](C)O)NC(=O)[C@H](CC(N)=O)NC1=O` [EC38] (H-CGINTASIPPICQ-OH; disulfide 1-12; C-terminus assumed) gave a pIC50 of 6.00.
Same read-out and setting: with `CC[C@H](C)[C@@H]1NC(=O)CNC(=O)[C@@H](N)CSSC[C@@H](C(=O)N[C@@H](CCC(N)=O)C(=O)O)NC(=O)[C@H]([C@@H](C)CC)NC(=O)[C@@H]2CCCN2C(=O)[C@@H]2CCCN2C(=O)[C@H]([C@@H](C)CC)NC(=O)[C@H](CO)NC(=O)[C@H](C)NC(=O)[C@H]([C@@H](C)O)NC(=O)[C@H](CCC(N)=O)NC1=O` [EC39] (H-CGIQTASIPPICQ-OH; disulfide 1-12) the figure was under 4.30; with `CC[C@H](C)[C@@H]1NC(=O)CNC(=O)[C@@H](N)CSSC[C@@H](C(=O)N[C@@H](CCC(N)=O)C(=O)O)NC(=O)[C@H]([C@@H](C)CC)NC(=O)[C@@H]2CCCN2C(=O)[C@@H]2CCCN2C(=O)[C@H]([C@@H](C)CC)NC(=O)[C@H](CO)NC(=O)[C@H](C)NC(=O)[C@H]([C@@H](C)O)NC(=O)[C@H](Cc2c[nH]cn2)NC1=O` [EC40] (H-CGIHTASIPPICQ-OH; disulfide 1-12), under 4.30; with `CC[C@H](C)[C@@H]1NC(=O)CNC(=O)[C@@H](N)CSSC[C@@H](C(=O)N[C@@H](CCC(N)=O)C(=O)O)NC(=O)[C@H]([C@@H](C)CC)NC(=O)[C@@H]2CCCN2C(=O)[C@@H]2CCCN2C(=O)[C@H]([C@@H](C)CC)NC(=O)[C@H](CO)NC(=O)[C@H](C)NC(=O)[C@H]([C@@H](C)O)NC(=O)[C@H](CCCCN)NC1=O` [EC42] (H-CGIKTASIPPICQ-OH; disulfide 1-12), under 4.30.
Same read-out and setting: under `CC[C@H](C)[C@@H]1NC(=O)[C@@H]2CCCN2C(=O)[C@@H](N)CSSC[C@@H](C(=O)N[C@@H](CCC(N)=O)C(=O)O)NC(=O)[C@H]([C@@H](C)CC)NC(=O)[C@@H]2CCCN2C(=O)[C@@H]2CCCN2C(=O)[C@H]([C@@H](C)CC)NC(=O)[C@H](CO)NC(=O)[C@H](C)NC(=O)[C@H]([C@@H](C)O)NC(=O)[C@H](C)NC1=O` [EC44] (H-CPIATASIPPICQ-OH; disulfide 1-12) stands under 4.30; under `CC[C@H](C)[C@@H]1NC(=O)[C@@H]2C[C@@H](O)CN2C(=O)[C@@H](N)CSSC[C@@H](C(=O)N[C@@H](CCC(N)=O)C(=O)O)NC(=O)[C@H]([C@@H](C)CC)NC(=O)[C@@H]2CCCN2C(=O)[C@@H]2CCCN2C(=O)[C@H]([C@@H](C)CC)NC(=O)[C@H](CO)NC(=O)[C@H](C)NC(=O)[C@H]([C@@H](C)O)NC(=O)[C@H](C)NC1=O` [EC46] (H-C[Hyp]IATASIPPICQ-OH; disulfide 1-12), under 4.30; under `CC[C@H](C)[C@H](N)C(=O)N[C@H]1CSSC[C@@H](C(=O)N[C@@H](CCC(N)=O)C(=O)O)NC(=O)[C@H]([C@@H](C)CC)NC(=O)[C@@H]2CCCN2C(=O)[C@@H]2C[C@@H](O)CN2C(=O)[C@H]([C@@H](C)CC)NC(=O)[C@H](CO)NC(=O)[C@H](C)NC(=O)[C@H]([C@@H](C)O)NC1=O` [EC47, Ile-Cys-Thr-Ala-Ser-Ile-Hyp-Pro-Ile-Cys-Gln] (H-ICTASI[Hyp]PICQ-OH; disulfide 2-10; C-terminus assumed), 6.40.

The same test, now with this note: read-out: Ki.
As for `CC[C@H](C)[C@H](N)C(=O)N[C@H]1CSSC[C@@H](C(=O)N[C@@H](CCC(N)=O)C(=O)O)NC(=O)[C@H]([C@@H](C)CC)NC(=O)[C@@H]2CCCN2C(=O)[C@@H]2C[C@@H](O)CN2C(=O)[C@H]([C@@H](C)CC)NC(=O)[C@H](CO)NC(=O)[C@H](C)NC(=O)[C@H]([C@@H](C)O)NC1=O` [EC47, Ile-Cys-Thr-Ala-Ser-Ile-Hyp-Pro-Ile-Cys-Gln] (H-ICTASI[Hyp]PICQ-OH; disulfide 2-10; C-terminus assumed), the pKi is 6.96.
The same measure, in the same setting: with `CC[C@H](C)[C@@H]1NC(=O)[C@H](CO)NC(=O)[C@H](C)NC(=O)[C@H]([C@@H](C)O)NC(=O)[C@@H](NC(=O)[C@H](CC(C)C)NC(=O)CNC(=O)CNC(=O)[C@@H](NC(=O)[C@@H]2CCCN2C(=O)[C@@H]2CCCN2C(=O)[C@@H](NC(=O)[C@H](CC(=O)O)NC(=O)[C@H](C)NC(=O)CNC(=O)[C@@H](N)CCC(N)=O)[C@@H](C)O)C(C)C)CSSC[C@@H](C(=O)N[C@@H](Cc2ccc(O)cc2)C(=O)O)NC(=O)[C@H](CCC(N)=O)NC(=O)[C@@H]2CCCN2C(=O)[C@@H]2CCCN2C1=O` [EC49] (H-QGADTPPVGGLCTASIPPQCY-OH; disulfide 12-20; N-terminus and C-terminus assumed) the figure was 6.55; with `CC[C@H](C)[C@@H]1NC(=O)[C@H](CO)NC(=O)[C@H](C)NC(=O)[C@H]([C@@H](C)O)NC(=O)[C@@H](NC(=O)[C@H](CC(C)C)NC(=O)CNC(=O)CNC(=O)[C@H](CC(=O)O)NC(=O)[C@H](CCC(=O)O)NC(=O)[C@@H](NC(=O)[C@H](C)NC(=O)[C@H](CC(N)=O)NC(=O)CNC(=O)[C@H](CC(N)=O)NC(=O)[C@@H](N)CO)C(C)C)CSSC[C@@H](C(=O)N[C@@H](Cc2ccc(O)cc2)C(=O)O)NC(=O)[C@H](CCC(N)=O)NC(=O)[C@@H]2CCCN2C(=O)[C@@H]2CCCN2C1=O` [EC50] (H-SNGNAVEDGGLCTASIPPQCY-OH; disulfide 12-20; N-terminus and C-terminus assumed), 6.55.
